Data as given in publication PMC12193579, “Pro-Apoptotic Activity of 1-(4,5,6,7-Tetrabromo-1H-benzimidazol-1-yl)propan-2-one, an Intracellular Inhibitor of PIM-1 Kinase in Acute Lymphoblastic Leukemia and Breast Cancer Cells” (International Journal of Molecular Sciences, 2025).

Legend:
[1] = biological target: T1, recombinant human CK2 catalytic subunit (rhCK2α) (Homo sapiens, UniProt P68400); test: radiometric P81 filter isotopic kinase assay, CK2α; format: biochemical
T1 construct: made in house
T1 sequence (P68400 whole entry): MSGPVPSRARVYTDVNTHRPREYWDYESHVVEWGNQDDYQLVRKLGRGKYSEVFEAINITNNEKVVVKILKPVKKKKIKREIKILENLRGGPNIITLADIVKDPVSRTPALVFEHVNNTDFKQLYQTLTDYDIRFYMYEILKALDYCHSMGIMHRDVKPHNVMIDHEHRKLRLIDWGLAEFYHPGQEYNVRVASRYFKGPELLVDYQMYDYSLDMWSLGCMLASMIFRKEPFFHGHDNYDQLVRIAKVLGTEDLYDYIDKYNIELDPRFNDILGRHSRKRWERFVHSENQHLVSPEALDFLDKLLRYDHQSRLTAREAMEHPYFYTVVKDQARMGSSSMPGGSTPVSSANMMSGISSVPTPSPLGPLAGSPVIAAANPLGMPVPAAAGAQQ
Procedure: Synthetic peptide […] served as the substrate for CK2, while peptide […] was used as the substrate for PIM-1.
The synthesized compounds were evaluated for their inhibitory activity against human CK2α, the human CK2 holoenzyme, and PIM-1 using the P81 filter-based isotopic assay, as previously described. […] The experimental data were fitted to a dose–response curve using non-linear regression analysis (variable slope) Y = Bottom + (Top − Bottom)/(1 + 10^((LogIC50 − X) × HillSlope) equation in GraphPad Prism (Prism 9, version 9.0.1).

CCRF-CEM cells [2] = test: mitochondrial membrane potential (ΔΨm) JC-1 assay, CCRF-CEM; format: cell-based, human; details: 48 h
Procedure: The mitochondrial membrane potential was evaluated by flow cytometry using 5,5′,6,6′-tetrachloro-1,1′,3,3′-tetraethylbenzimidazolocarbocyanine iodide (JC-1; Sigma-Aldrich), as previously described.

CCRF-CEM cells [3] = test: cell cycle progression by flow cytometry, CCRF-CEM; format: cell-based, human; details: 16 µM, 48 h
Procedure: Since CK2 and PIM kinases regulate cell cycle progression, their inhibition may alter the distribution of cells across different cell cycle phases. […] For control cells, the percentage of G2/M cells was 17%. In addition to those changes, we observed cells in the sub-G1 phase, which are apoptotic cells. Accumulation of cells in this phase reflects DNA degradation characteristic of apoptotic cells. The largest percentage of these cells, i.e., 32% was determined in 16 µM 1-treated cells (Figure 6a,b).
(§1) CCRF-CEM and MCF-7 cells were cultured in 6-well plates and treated with the tested compounds for 48 h. After exposure to the compounds, the cells were collected, washed with cold PBS, and fixed in 70% ethanol at –20 °C for at least 24 h. Subsequently, the cells were washed in PBS and stained according to the procedure previously described by our group. The cellular DNA content was measured by flow cytometry using a BD Accuri C6 Plus flow cytometer (BD Biosciences, San Jose, CA, USA). The resulting DNA histograms were analyzed with BD Accuri C6 Plus software (San Diego, CA, USA) to assess the distribution of cells across different phases of the cell cycle.

MCF-7 cells = test: cell cycle progression by flow cytometry, MCF-7; format: cell-based, human; details: 48 h
Procedure: Additionally, we observed the prolongation of G2/M in MCF-7 treated with 1 at the highest concentration. […] 1 induced G2/M phase arrest in MCF-7 with the highest effect detected for the 16 µM concentration, manifested as 32% cells in that stage, whereas in the control, the percentage of G2/M cells was 22%.
as §1

[4] = tested on: caspase-3 in CCRF-CEM cells; test: caspase-3 activation, flow cytometry, CCRF-CEM; format: cell-based, human; details: 16 µM, 24 h
Procedure: Since caspase-3 is a key protease activated in the early stages of apoptosis, we next investigated whether apoptosis in CCRF-CEM cells is mediated through caspase-3 activation. Both cpd. […] 1. The results are consistent with the previously observed pro-apoptotic properties of derivative 1.
Caspase-3 activity was measured using the FITC Active Caspase-3 Apoptosis Kit (BD Pharmingen, San Jose, CA, USA) according to the manufacturer’s instructions. The stained cells were measured with a BD Accuri C6 Plus flow cytometer.

[5] = tested on: PIM-1 kinase in MCF-7 cells (Ser112 in BAD); test: Western blot of phosphorylated BAD (Ser112), marker of PIM kinase activity, MCF-7; format: cell-based, human; details: 16 µM, 24 h, untreated cells = 1
Procedure: (§2) After 24 h of treatment, we assessed site-specific phosphorylation of Ser529 in NF-κB p65 and Ser112 in BAD—a marker of PIM kinase activity—using Western blot analysis (Figure 8). The data for BAD confirmed intracellular inhibition of this kinase by the tested compounds in both cell lines in a dose-dependent manner. A statistically significant decrease in phosphorylated BAD was observed following treatment with 16 µM of compound 1, with relative protein levels reduced to 0.48 and 0.46 in CCRF-CEM and MCF-7 cells, respectively (Figure 8a–c).
(§3) Exponentially growing CCRF-CEM or MCF-7 cells were seeded at a density of 6 × 10^5 cells per 6 cm dish. Compounds were then added, with a final DMSO concentration of 0.5%. Cell lysates were prepared as previously described. The ECL substrate was used for signal detection, and the immunoblots were scanned using a G:BOX Chemi imaging system (Syngene, Cambridge, UK) equipped with GeneSys software, Version 1.4.3.0 (Syngene, Cambridge, UK).
(§4) For densitometric analysis, immunoblots were scanned using the G:BOX Chemi system (Syngene), and the band intensities of phosphorylated and total proteins were quantified with GeneSys software (Syngene, Cambridge, UK). The levels of phosphorylated proteins were normalized to GAPDH, with the value for untreated cells set to 1, and subsequently expressed as a percentage relative to the appropriate control.

[6] = tested on: CK2 in CCRF-CEM cells (Ser529 in NF-κB p65); test: Western blot of phosphorylated p65 (Ser529), intracellular CK2 inhibition, CCRF-CEM; format: cell-based, human; details: 16 µM, 24 h, untreated cells = 1
Procedure: as §2, §3, §4

[7] = tested on: CK2 in MCF-7 cells (Ser529 in NF-κB p65); test: Western blot of phosphorylated p65 (Ser529), intracellular CK2 inhibition, MCF-7; format: cell-based, human; details: 8 µM, 24 h, untreated cells = 1
Procedure: as §2, §3, §4

SMILES: CC(=O)Cn1cnc2c(Br)c(Br)c(Br)c(Br)c21 [compound 1, 1-(4,5,6,7-tetrabromo-1H-benzimidazol-1-yl)propan-2-one]
- IC50 [1]: 6.65 ± 0.74 µM
- remaining activity at 2 µM ([1]; cpd. concentration 2 μM, read-out: CK2α Residual Activity [%]): 58.5 ± 2.2%
- remaining activity at 5 µM ([1]; cpd. concentration 5 μM, read-out: CK2α Residual Activity [%]): 32.3 ± 0.3%
- remaining activity at 20 µM ([1]; cpd. concentration 20 μM, read-out: CK2α Residual Activity [%]): 10.2 ± 0.6%
- CCRF-CEM cells with reduced ΔΨm (CCRF-CEM cells [2]; 16 µM): 76%
- CCRF-CEM cells with reduced ΔΨm (CCRF-CEM cells [2]; 32 µM): 99.4%
- CCRF-CEM cells in the sub-G1 phase (CCRF-CEM cells [3]): 32%
- CCRF-CEM cells in the G2/M phase (CCRF-CEM cells [3]; control 17%): 10%
- CCRF-CEM cells in the S phase (CCRF-CEM cells [3]; control 33%): 20%
- MCF-7 cells in the S phase (MCF-7 cells; 8 µM, control 17%): 11%
- MCF-7 cells in the G2/M phase (MCF-7 cells; 16 µM, control 22%): 32%
- CCRF-CEM cells with the active caspase-3 [4]: 60%
- relative level of phosphorylated BAD (Ser112), MCF-7 [5]: 0.46
- relative level of phosphorylated p65 (Ser529), CCRF-CEM [6]: 0.46
- relative level of p65-P (Ser529), MCF-7 [7]: 0.84
